Read-outs that look alike come from different tables or passages of the source. Bounds are passed on as bounds.

For experiment [1], the target named is T1, HCV NS5B polymerase (NS5BΔCT21, from HCV-Con 1 isolate, genotype 1b) (Hepatitis C virus genotype 1b, UniProt Q9WMX2).
T1 construct: A soluble C-terminal 21-amino acid truncated NS5B enzyme form; polyhistidine (C); made in house; host or cells: Escherichia coli
Kind of experiment: HCV NS5B Polymerase Inhibition Assay. The format is biochemical. A digest of the protocol:
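His-tagged NS5BΔCT21 (30 or 150 nM) with 0.03 μM DCoH75 RNA template, 0.25 mM GAU, 0.1 μM ATP/GTP/UTP, 0.026 μM CTP plus [^33P]-CTP, pH 7.3, 2% DMSO; 2 h at 22° C. Incorporated radioactivity counted after filter capture. IC50 from 10-point 2-fold dilutions (top 200 μM to 1 μM) fitted to Hill equation.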

Experiment [2] relates to HCV replicon cells (replicon RNA level). Kind of experiment: Cell-Based HCV Replicon Assay. Particulars: Hepatitis C virus, 72 h. The method in brief:
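Replicon cells at 5000/well received 10 serial 2-fold compound dilutions in 0.5% DMSO, 5% FBS, harvested day 3. Replicon RNA quantified by multiplex Taqman RT-PCR on NS5B versus GAPDH; EC50 and EC90 taken at ΔCT = 1 and 3.2 above baseline from sigmoid fits.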

[3] abbreviates: NS5B polymerase inhibition, [33P]-CTP incorporation, 22° C. for 2 hours, read-out: IC50.
[4] abbreviates: replicon RNA level by real time PCR (Taqman), cells harvested on day 3, read-out: EC50.

The term IC50 denotes the concentration needed to halve the response being measured. As a reminder, the EC50 is the concentration that produces a half-maximal response. In the case of `O=C(NS(=O)(=O)C1CC1)c1c(-c2ccc[nH]c2=O)c2c3occc3c(F)cc2n1Cc1cc(C(O)CO)ccc1F` (centres unmarked) [Compound 207], the IC50 in experiment [1] (setting [3]) was < 25 nM. The EC50 in experiment [2] (setting [4]) is < 500 nM.
On the same counts, the results for `CS(=O)(=O)NC(=O)c1c(-c2ccc[nH]c2=O)c2c3occc3c(F)cc2n1Cc1ccc2[nH]c(C(F)(F)F)nc2c1` [Compound 208] are < 25 nM and < 500 nM.
On the same counts, the results for `O=C(NS(=O)(=O)C1CC1)c1c(-c2ccc[nH]c2=O)c2c3ncsc3ccc2n1Cc1cc2ccccc2nc1Cl` [Compound 209] are < 25 nM and < 500 nM.
As for `O=C(NS(=O)(=O)C1CC1)c1c(-c2ccc[nH]c2=O)c2c3occc3c(F)cc2n1Cc1cc(Cl)nc2ccccc12` [Compound 210], the IC50 in experiment [1] (setting [3]) was < 25 nM. Moreover, in experiment [2] (setting [4]), the EC50 was in the range of 500 to 1500 nM.
On the same counts, the results for `O=C(NS(=O)(=O)C1CC1)c1c(-c2ccc[nH]c2=O)c2c3occc3c(F)cc2n1Cc1cc2ccccc2nc1Cl` [Compound 211] are < 25 nM and < 500 nM.
Consider `O=C(NS(=O)(=O)C1CC1)c1c(-c2ccc[nH]c2=O)c2c3occc3c(F)cc2n1Cc1cc2c(=O)[nH]cnc2cc1F` [Compound 212], for which the IC50 in experiment [1] was < 25 nM. Moreover, in experiment [2] (setting [4]), the EC50 was < 500 nM.
Consider `CCCS(=O)(=O)NC(=O)c1c(-c2ccc[nH]c2=O)c2c3occc3c(F)cc2n1Cc1cc2ccccc2nc1Cl` [Compound 213], for which the IC50 in experiment [1] (setting [3]) was < 25 nM. Further, the concentration for a half-maximal effect (EC50) in experiment [2] (setting [4]) was < 500 nM.
On the same counts, the results for `CN(C)S(=O)(=O)NC(=O)c1c(-c2ccc[nH]c2=O)c2c3occc3c(F)cc2n1Cc1cc2ccccc2nc1Cl` [Compound 215] are < 25 nM and < 500 nM.
On the same counts, the results for `CC(C)S(=O)(=O)NC(=O)c1c(-c2ccc[nH]c2=O)c2c3c(c(F)cc2n1Cc1cc2ccccc2nc1Cl)CCO3` [Compound 216] are < 25 nM and < 500 nM.
On the same counts, the results for `CS(=O)(=O)NC(=O)c1c(-c2ccc[nH]c2=O)c2c3occc3c(F)cc2n1Cc1cc2cccc(Br)c2o1` [Compound 218] are < 25 nM and > 1500 nM.
As to `CC(C)(C)C(=O)OCn1cccc(-c2c(C(=O)O)n(Cc3cc4ccccc4nc3Cl)c3cc(F)c4ccoc4c23)c1=O` [Compound 219], the IC50 in experiment [1] (setting [3]) was > 100 nM. For the same molecule, in experiment [2] (setting [4]), the EC50 was < 500 nM.
On the same counts, the results for `O=C(NC1CC1)c1ccc(F)c(Cn2c(C(=O)NS(=O)(=O)C3CC3)c(-c3ccc[nH]c3=O)c3c4occc4c(F)cc32)c1` [Compound 221] are < 25 nM and > 1500 nM.
On the same counts, the results for `O=C(NS(=O)(=O)C1CC1)c1c(-c2ccc[nH]c2=O)c2c3occc3c(F)cc2n1Cc1ccc2[nH]c(C(F)(F)F)nc2c1` [Compound 222] are < 25 nM and < 500 nM.
As to `Nc1ccccc1S(=O)(=O)NC(=O)c1c(-c2ccc[nH]c2=O)c2c3occc3c(F)cc2n1Cc1cc2ccccc2nc1Cl` [Compound 223], the IC50 in experiment [1] (setting [3]) is < 25 nM. Moreover, in experiment [2] (setting [4]), the EC50 is < 500 nM.
On the same counts, the results for `O=C(NS(=O)(=O)C1CC1)c1ccc(F)c(Cn2c(C(=O)NS(=O)(=O)C3CC3)c(-c3ccc[nH]c3=O)c3c4occc4c(F)cc32)c1` [Compound 225] are < 25 nM and 500 to 1500 nM.
On the same counts, the results for `COc1cc(Cn2c(C(=O)OCOC(=O)C(C)(C)C)c(-c3cccn(COC(=O)C(C)(C)C)c3=O)c3c4occc4c(F)cc32)c(F)cn1` [Compound 226] are > 100 nM and < 500 nM.
On the same counts, the results for `CC(C)(C)OC(=O)N(C(=O)OC(C)(C)C)c1cc(Cn2c(C(=O)NS(=O)(=O)C3CC3)c(-c3ccc[nH]c3=O)c3c4occc4c(F)cc32)c(F)cn1` [Compound 227] are > 100 nM and < 500 nM.
As for `CC(C)(C)C(=O)OCOC(=O)c1c(-c2cccn(COC(=O)C(C)(C)C)c2=O)c2c3occc3c(F)cc2n1Cc1cc(=O)n(COC(=O)C(C)(C)C)cc1F` [Compound 228], the IC50 in experiment [1] was > 100 nM. Moreover, in experiment [2] (setting [4]), the EC50 is < 500 nM.
Turning to `CC1(C)COc2c1ccc1c2c(-c2ccc[nH]c2=O)c(C(=O)O)n1Cc1cc2ccccc2nc1Cl` [Compound 231], the IC50 in experiment [1] (setting [3]) is < 25 nM. The EC50 in experiment [2] was < 500 nM.
